What all share (type): physicochemical
The nature of data set [1]: Dynamic vapour sorption (DVS) analysis in isotherm at 25° C. To be noted: for weight change at 0% RH in desorption / water still contained at the inflection at about 40% RH in desorption / weight change preserved in desorption up to 50% RH / weight change in sorption at 30% RH / weight change in sorption at 70% RH / weight change in sorption at 90% RH / change in weight in sorption at 20% RH: DVS isotherm 25° C.; for water still contained at the inflection at about 40% RH in desorption: about 40% RH (corresponds to about 4 water molecules); for weight change preserved in desorption up to 50% RH: stable up to 50% RH (corresponds to about 8 water molecules). The procedure: (§1) To check the stability of the samples DVS (Dynamic vapour sorption) measurements were made using the DVS Intrinsic SMS instrument. The weight change of the sample associated with the change in humidity in a chamber at constant temperature was determined. Each sample was weighed in a range from […], with mass change equal to ±150 mg and mass resolution equal to ±0.1 μg, and positioned in the instrument and analysed at 25° C.±0.1 and 40° C.±0.1 in a relative humidity range comprised between 0% RH and 90% RH with increments of 10% RH, accuracy equal to ±1% RH. Moreover, the sample is brought from 0-90-0% RH with stages of 10% RH. The duration of these stages is as a function of the stabilization of the weight: if the weight change remains less than 0.002 dm (%)/dt (min) for 10 min, it goes on to the next stage. However, the stabilization for each stage cannot last more than 6 hours and in that case the instrument passes on to the next stage. The last stage contemplates the stabilization of the sample at 0% RH for 4 hours.
In order to verify the stability of the samples DVS (Dynamic vapour sorption) measurements were carried out using the DVS Intrinsic SMS instrument. The weight change of the sample associated with the change in humidity in a chamber at constant temperature was determined. Each sample was positioned in the instrument and analysed at 25° C.±0.1 in a humidity range that ranges from 0% to 90% RH with increments of 10% RH, RH accuracy equal to ±1% RH. The sample is stabilized at 0% RH for 4 hours. The duration of the single stages is as a function of the stabilization of the weight: if the weight change remains less than 0.002 dm (%)/dt (min) for 10 min, it goes on to the next stage. The stabilization cannot last more than 6 hours and in that case it passes on to the next stage. The last stage contemplates the stabilization of the sample at 0% RH for 4 hours.
(§2) To check the stability of the samples DVS (Dynamic vapour sorption) measurements were made using the DVS Intrinsic SMS instrument. The weight change of the sample associated with the change in humidity in a chamber at constant temperature was determined. Each sample was positioned in the instrument and analysed at 25° C.±0.1 in a humidity range from 0% RH to 90% RH with increments of 10% RH, accuracy equal to ±1% RH. The sample is stabilized at 0% RH for 4 hours. The duration of the single stages is as a function of the stabilization of the weight: if the weight change remains less than 0.002 dm (%)/dt (min) for 10 min, it goes on to the next stage. The stabilization cannot last more than 6 hours and in that case it passes on to the next stage. The last stage contemplates the stabilization of the sample at 0% RH for 4 hours.

A short description of data set [2]: Dynamic vapour sorption (DVS) analysis in isotherm at 40° C. To be noted: DVS isotherm 40° C. The protocol:
as §1
as §2, with “Each sample is positioned in” for “Each sample was positioned in”, “analysed at 40° C.±0.1 in” for “analysed at 25° C.±0.1 in”, “from 0% to 90%” for “from 0% RH to 90%”, “10% RH, RH accuracy equal” for “10% RH, accuracy equal”, “of the weight, if the” for “of the weight: if the”

Data set [3] is described as follows: Reprecipitation of FI/FII 1:1 (w/w) in ethyl acetate, 48 hours at 25° C., XPRD of the solid. The protocol: Into a 2 liter jacketed reactor 1000 ml of ethyl acetate (EtOAc) is loaded, the mechanical stirrer is actuated setting the rate to 200 rpm and then 25 g of polymorphic form FI and 25 g of polymorphic form FII are slowly added. It is left under stirring for 48 hours at a temperature of 25° C.
It is filtered on buckner and the white solid obtained is washed with 50 ml of EtOAc (1 Volume with respect to the loaded total dry solid NaHDC polymorphic form FI and NaHDC polymorphic form FII).

Data set [4] in a line: Thermal stability by DSC and XPRD at variable temperature. The following applies: for temperature up to which the form is stable: DSC / XPRD at variable temperature. The procedure: The thermal properties of the polymorphic forms described were obtained through differential scanning calorimetry (DSC). The DSC profiles were obtained with a heat flow instrument DSC 200 F3 Maia® (Netzsch). The DSC 200 F3 Maia® instrument was calibrated for temperature and enthalpy with an indium standard (melting point: 156.6° C.; ΔHf=28.45 Jg^−1). The samples were analysed according to the following conditions: • temperature range: 25-350° C.; • heating rate: 10° C./min; • sample-holder: perforated aluminium crucible; • gas: anhydrous nitrogen at a flow rate of 60 mL/min.
In order to determine the X-ray powder diffraction profiles (XPRD) a diffractometer Panalytical X'Pert Pro equipped with detector X'Celerator and X-ray tube (PW3373/00 Cu LFF DK312503) with current intensity 40 mA and voltage 40 kV was used. The instrument was calibrated with a silicon powder standard PANalytical640. The sample was positioned on a glass sample-carrier and analysed using the following parameters: • Scanning range(°): 3.0010-39.9997 • Data acquisition range(°): 0.0167 • Scanning mode: Continuous • Counter time (s): 12,700 • soller slits (rad): 0.04 • divergence slits: ¼ • anti-scatter slits: ½

Data set [5] is described as follows: Stability tests according to guidelines ICH Q1A at 25° C./60% RH and 40° C./75% RH.
Data set [6] can be described thus: Stability of the polymorphic form in the formulation of a medicinal product. To be noted: inserted into the formulation of a medicinal product.
The mark [7] stands for this setting: listed as mixture of forms of NaHDC.

Entries after “also recorded” stand apart in the source; their conditions may differ.

`C[C@H](CCC(=O)[O-])[C@H]1CC[C@H]2[C@@H]3C[C@H](O)[C@@H]4C[C@H](O)CC[C@]4(C)[C@H]3CC[C@]12C.[Na+]` [amorphous form of NaHDC, sodium 3α,6α-dihydroxy-5β,-cholan-24-oate]: in data set [1], the “weight change at 0% RH in desorption” value is “weight that is less than the starting weight”, the “water still contained at the inflection at about 40% RH in desorption” value is “about 17%”, the “weight change preserved in desorption up to 50% RH” value (shortened to “weight change preserved … to 50% RH”) is recorded as “about 34%” and the “weight change in sorption at 30% RH” value is listed as “about 6%”. For the same compound, in data set [1], the “weight change in sorption at 70% RH” value came to 22% and the “weight change in sorption at 90% RH” value is “about 35%”.

On to `C[C@H](CCC(=O)[O-])[C@H]1CC[C@H]2[C@@H]3C[C@H](O)[C@@H]4C[C@H](O)CC[C@]4(C)[C@H]3CC[C@]12C.[Na+]` [NaHDC mixture, sodium 3α,6α-dihydroxy-5β,-cholan-24-oate], for which, in data set [1], the “water still contained at the inflection at about 40% RH in desorption” value is “about 18%”, the “weight change preserved … to 50% RH” value is on record as “about 34%”, the “change in weight in sorption at 20% RH” value was “about 3%” and the “weight change in sorption at 90% RH” value was “about 35%”. In addition, in data set [1] (setting [7]), the “water still contained at the inflection at about 40% RH in desorption” value was “about 18%”, the “change in weight in sorption at 20% RH” value is on record as “about 3%” and the “weight change in sorption at 70% RH” value came to 15%.

In the case of `C[C@H](CCC(=O)[O-])[C@H]1CC[C@H]2[C@@H]3C[C@H](O)[C@@H]4C[C@H](O)CC[C@]4(C)[C@H]3CC[C@]12C.[Na+]` [polymorphic form FI, sodium 3α,6α-dihydroxy-5β,-cholan-24-oate], the “weight change at 0% RH in desorption” value in data set [2] (desorption) was “zero”. Also, the “change in weight at the plateau at 50-40% RH in desorption” value in data set [2] (desorption, 50-40% RH) is “about 17%”. Besides, the “weight change in sorption at 30% RH” value in data set [2] (sorption, 30% RH) is listed as “about 2%”. In data set [2] (sorption), the “weight change in sorption at 70% RH” value stood at 8% and the “weight change in sorption at 90% RH” value is listed as “about 43%”. Also, in data set [1], the “weight change at 0% RH in desorption” value is recorded as “zero”, the “water still contained at the inflection at about 40% RH in desorption” value is on record as “about 18%”, the “weight change preserved … to 50% RH” value was “about 34%” and the “weight change in sorption at 30% RH” value was “about 2%”. For the same compound, the “weight change in sorption at 90% RH” value in data set [1] is listed as “about 35%”. Moreover, the “interconversion of the polymorphic form on reprecipitation” value in data set [3] (FI and FII 1:1 weight/weight, ethyl acetate, 48 hours, room temperature (20-25° C.)) is “completely converts into the polymorphic form FII; also recorded: interconverts into the polymorphic form FII”. The “temperature up to which the form is stable” value in data set [4] amounted to 280 °C.

With `C[C@H](CCC(=O)[O-])[C@H]1CC[C@H]2[C@@H]3C[C@H](O)[C@@H]4C[C@H](O)CC[C@]4(C)[C@H]3CC[C@]12C.[Na+]` [polymorphic form FII, sodium 3α,6α-dihydroxy-5β,-cholan-24-oate], the “stability with regard to humidity in ICH Q1A tests” value in data set [5] is “surprising and unforeseeable stability with regard to humidity both at 25 °C and at 40 °C”. In data set [2] (desorption), the “weight change at 0% RH in desorption” value is listed as “about 6%”. The “shape of the desorption curve at 50-40% RH” value in data set [2] (desorption, 50-40% RH) was “plateau”. In data set [2] (sorption), the “relative humidity up to which the sample is stable in sorption” value is given as “about 70 % RH”, the “weight change in sorption at 70% RH” value is reported as “less than 2%” and the “weight change in sorption at 90% RH” value is listed as “about 45%”. Further, in data set [1], the “weight change at 0% RH in desorption” value is recorded as “zero”, the “water still contained at the inflection at about 40% RH in desorption” value is given as “about 18%”, the “weight change preserved … to 50% RH” value was “about 34%” and the “weight change in sorption at 70% RH” value is “less than 2%”. Moreover, the “weight change in sorption at 90% RH” value in data set [1] is recorded as “about 35%”. For the same compound, in data set [1] (humidity sorption cycle in isotherm at 25° C. and at 40° C. (FIGS. 10-13, 27, 28, 58)), the hygroscopic behaviour result is “non-hygroscopic”. Also, the “thermodynamic stability among the forms” value in data set [3] (room temperature) was “most thermodynamically stable one at room temperature and up to 260 °C; also recorded: most thermodynamically stable form at room temperature”. The “stability over time in the formulation (interconversion into other polymorphic forms)” value in data set [6] was “stable over time”. The “temperature up to which the form is stable” value in data set [4] is 260 °C. For the same compound, in data set [4] (heating, solid-solid conversion into form FI), the “temperature of conversion into the polymorphic form FI on heating” value is 280 °C.

These data come from patent US9580458B2, “Polymorphic form of sodium hyodeoxycholate (NaHDC) and its preparation process” (PRODOTTI CHIMICI E […].P.A., priority 2013, dated 2017).
